Results published in patent US7807845B2, “Resistance-repellent retroviral protease inhibitors” (priority 2004, dated 2010).

How the values were obtained:
[1] = test system: HIVmutant10 (16 mutations); test: Antiviral assay in MT-4 cells (MTT), mutant 10 virus; format: cell-based, HIV; details: Human immunodeficiency virus 1, MT4, 120 h, read-out: IC50 Mutant 10
Method: (§1) MT-4 cells were obtained from the AIDS Research and Reference Reagent Program (ARRRP, Division of AIDS, NIAID, NIH: MT-4 from Dr. D. Richman). Cells were propagated in RPMI 1640 supplemented with 10% fetal bovine serum, 50U of penicillin and 50 μg of streptomycin per ml (Invitrogen, Carlsbad Calif.). The following HIV viruses were used for testing of antiviral potency of compounds: WT=HIVHXB2; recombinant HIVHXB2 virus from drug resistant patient isolates; HIVmutant10 (16 mutations); HIVmutant8 (14 mutations); HIVmutant9 (10 mutations).
(§2) The potency of test compound was determined as previously described (ref 1-3) with minor modifications. MT-4 cells (1.5×10^4/ml) were exposed to 200 50 % tissue culture infective doses (TCID50) of viruses in the presence of various concentrations of test compound in 96 well microtiter plates and incubated at 37° C. for 5 days. 3-(4,5-dimethylthiazol-2-yl)-2,5-diphenytetrazolium bromide (MTT) solution was added to a final concentration of 0.75 mg/ml, and plates were incubated 1 hour. After incubation cells were dissolved in isopropanol/Triton-X 100/HCl (1000:50:25) solution. Absorbance was monitored in a microplate reader (Spectramax, Molecular Devices) at 540 nm and 690 nm. Cytotoxicity of compounds was tested in a similar assay in the absence of virus.

[2] = test system: HIVmutant9 (10 mutations); test: Antiviral assay in MT-4 cells (MTT), mutant 9 virus; format: cell-based, HIV; details: Human immunodeficiency virus 1, MT4, 120 h, read-out: IC50 Mutant 9
Method: as §1, §2

[3] = test system: HIVmutant8 (14 mutations); test: Antiviral assay in MT-4 cells (MTT), mutant 8 virus; format: cell-based, HIV; details: Human immunodeficiency virus 1, MT4, 120 h, read-out: IC50 Mutant 8
Method: as §1, §2

[4] = biological target: mutant HIV PR (Mutant 10) (Human immunodeficiency virus type 1 group M subtype B, UniProt P04585); test: HIV PR inhibition assay, Mutant 10; format: biochemical; details: read-out: Ki Mutant 10; recombinant mutant HIV PR, fluorogenic substrate, pH 6.5
Method: (§3) Expression and purification of WT and mutant HIV PR. Recombinant wild type and mutant HIV PRs were expressed using pET21 vector (Novagen) in E. coli cells, and purified and refolded as described previously (Gulnik et al, 1995). The cells were resuspended in 50 mM tris-HCl buffer, pH 8.0, 25 mM NaCl, 0.2% β-mercaptoethanol (buffer A), sonicated and centrifuged. Inclusion bodies were washed first with buffer A, then with buffer A containing respectively 0.1% Triton X-100, 1 M NaCl, 1 M urea, and finally with buffer A alone. Purified inclusion bodies were solubilized by addition of buffer A containing 8 M urea at room temperature. The solution was clarified by centrifugation and loaded onto 2.6×9.5 cm Q-Sepharose column. Flow-through fractions were collected and dialyzed against 3 changes of refolding buffer, which consists of 25 mM Na-phosphate, pH 7.0, 25 mM NaCl, 0.2% β-mercaptoethanol and 10% glycerol, aliquoted and stored at −80° C.
(§4) Inhibition constants were determined using the fluorogenic substrate ArgGlu(EDANS)[…]DABCYL)Arg (Amichem, USA). HIV Protease was preincubated for 0.5-1 min at ambient temperature on a 96 well plate with different concentrations of inhibitor in 0.05 M sodium phosphate buffer, pH 6.5, containing 20 mM NaCl, 2 mM DTT and 0.01% Tween-20. The reaction was initiated by the addition of substrate. Final enzyme concentration was 2-5 nM for WT and 2-30 nM for mutants. Substrate concentration was 20 uM and DMSO concentration 2%. The increase in fluorescence intensity at the emission maximum of 520 nm (excitation wavelength 340 nm, cut-off filter 495 nm) was monitored as a function of time using a Spectramax Gemini fluorescence plate reader (Molecular Devices, CA USA). The initial rate of hydrolysis was calculated by first-degree polynomial fit using SoftMAX operating software. Data were fitted to the Michaelis-Menten equation for competitive inhibitors. For tight-binding inhibitors the data were fitted by nonlinear regression analysis to the equation V=V0/2Et({[Ki(1+S/Km)+It−Et]^2+4Ki(1+S/Km)Et}^1/2−[Ki(1+S/Km)+It−Et]) (Williams and Morrison, 1979) with the program GraFit, version 5 (Erithacus Software Limited, UK), where V and V0 are initial velocities with and without inhibitor, Km is the Michaelis-Menten constant and S, Et and It are the concentrations of substrate, active enzyme and inhibitor respectively.

mutant HIV PR (Mutant 9) = mutant HIV PR (Mutant 9) (Human immunodeficiency virus type 1 group M subtype B, UniProt P04585); test: HIV PR inhibition assay, Mutant 9; format: biochemical; details: read-out: Ki Mutant 9; recombinant mutant HIV PR, fluorogenic substrate, pH 6.5
Method: as §3, §4

WT=HIVHXB2 = test: Antiviral assay in MT-4 cells (MTT), WT virus; format: cell-based, HIV; details: Human immunodeficiency virus 1, MT4, 120 h, HIVHXB2, 5 days
Method: as §1, §2

wild type HIV PR = biological target: T1, wild type HIV PR (Human immunodeficiency virus type 1 group M subtype B, UniProt P04585); test: HIV PR inhibition assay, wild type; format: biochemical
T1 construct: Recombinant wild type and mutant HIV PRs were expressed using pET21 vector (Novagen) in E. coli cells; made in house
Method: as §3, §4

mutant HIV PR (Mutant 8) = mutant HIV PR (Mutant 8) (Human immunodeficiency virus type 1 group M subtype B, UniProt P04585); test: HIV PR inhibition assay, Mutant 8; format: biochemical; details: read-out: Ki Mutant 8; recombinant mutant HIV PR, fluorogenic substrate, pH 6.5
Method: as §3, §4

CC(C)CNC=C1C(=O)Nc2ccc(S(=O)(=O)N(CC(C)C)CC(O)C(Cc3ccccc3)NC(=O)OC3COC4OCCC34)cc21 (stereo not shown) [Compound 60, (1-Benzyl-2-hydroxy-3-{isobutyl-[3-(isobutylamino-methylene)-2-oxo-2,3-dihydro-1H-indole-5-sulfonyl]-amino}-propyl)-carbamic acid hexahydro-furo[2,3-b]furan-3-yl ester]
IC50 [1]: 33 nM
IC50 [2]: 9.5 nM
IC50 [3]: 16 nM
Ki [4]: < 1 nM
Ki (mutant HIV PR (Mutant 9)): 0.15 nM
IC50 (WT=HIVHXB2): 7.5 nM
Ki (wild type HIV PR): < 0.1 nM
Ki (mutant HIV PR (Mutant 8)): < 0.3 nM

CC(C)CC(C)NC=C1C(=O)Nc2ccc(S(=O)(=O)N(CC(C)C)CC(O)C(Cc3ccccc3)NC(=O)OC3COC4OCCC34)cc21 (stereo not shown) [Compound 104]
IC50 [1]: 74 nM
IC50 [2]: 16 nM
IC50 [3]: 33 nM
Ki [4]: 1.3 nM
Ki (mutant HIV PR (Mutant 9)): 0.25 nM
IC50 (WT=HIVHXB2): 7 nM
Ki (wild type HIV PR): 0.17 nM
Ki (mutant HIV PR (Mutant 8)): < 0.3 nM

CC(C)CN(C[C@@H](O)[C@H](Cc1ccccc1)NC(=O)O[C@H]1CO[C@H]2OCC[C@H]21)S(=O)(=O)c1ccc2c(c1)/C(=C/N(C)C)C(=O)N2 [Compound 21, {1-Benzyl-3-[(3-dimethylaminomethylene-2-oxo-2,3-dihydro-1H-indole-5-sulfonyl)-isobutyl-amino]-2-hydroxy-propyl}-carbamic acid hexahydro-furo[2,3-b]furan-3-yl ester]
IC50 [1]: 70 nM
IC50 [2]: 65 nM
IC50 [3]: 90 nM
Ki [4]: < 1 nM
Ki (mutant HIV PR (Mutant 9)): < 0.1 nM
IC50 (WT=HIVHXB2): 93 nM
Ki (wild type HIV PR): < 0.1 nM
Ki (mutant HIV PR (Mutant 8)): < 0.3 nM

CC(C)CN(CC(O)C(Cc1ccccc1)NC(=O)OC1COC2OCCC12)S(=O)(=O)c1ccc2c(c1)C(=CNC1CCCCC1)C(=O)N2 (stereo not shown) [Compound 107]
IC50 [1]: 110 nM
IC50 [2]: 28 nM
IC50 [3]: 39 nM
Ki [4]: 1.2 nM
Ki (mutant HIV PR (Mutant 9)): 0.21 nM
IC50 (WT=HIVHXB2): 13 nM
Ki (wild type HIV PR): < 0.1 nM
Ki (mutant HIV PR (Mutant 8)): < 0.3 nM

CC(C)CN(CC(O)C(Cc1ccccc1)NC(=O)OC1COC2OCCC12)S(=O)(=O)c1ccc2c(c1)C(=CNCC(F)(F)C(F)(F)C(F)(F)F)C(=O)N2 (stereo not shown) [Compound 125]
IC50 [1]: 39 nM
IC50 [2]: 24 nM
IC50 [3]: 37 nM
Ki [4]: 1.2 nM
Ki (mutant HIV PR (Mutant 9)): 0.17 nM
IC50 (WT=HIVHXB2): 14 nM
Ki (wild type HIV PR): < 0.1 nM
Ki (mutant HIV PR (Mutant 8)): < 0.3 nM

CCCC(C)NC=C1C(=O)Nc2ccc(S(=O)(=O)N(CC(C)C)CC(O)C(Cc3ccccc3)NC(=O)OC3COC4OCCC34)cc21 (stereo not shown) [Compound 108]
IC50 [1]: 80 nM
IC50 [2]: 15 nM
IC50 [3]: 35 nM
Ki [4]: < 1 nM
Ki (mutant HIV PR (Mutant 9)): < 0.1 nM
IC50 (WT=HIVHXB2): 9 nM
Ki (wild type HIV PR): < 0.1 nM
Ki (mutant HIV PR (Mutant 8)): < 0.3 nM

CC(C)CN(CC(O)C(Cc1ccccc1)NC(=O)OC1COC2OCCC12)S(=O)(=O)c1ccc2c(c1)C(=CNC1CCC1)C(=O)N2 (stereo not shown) [Compound 114]
IC50 [1]: 115 nM
IC50 [2]: 31 nM
IC50 [3]: 30 nM
Ki [4]: 1.2 nM
Ki (mutant HIV PR (Mutant 9)): 0.15 nM
IC50 (WT=HIVHXB2): 17 nM
Ki (wild type HIV PR): < 0.1 nM
Ki (mutant HIV PR (Mutant 8)): < 0.3 nM

CC(C)CN(C=C1C(=O)Nc2ccc(S(=O)(=O)N(CC(C)C)CC(O)C(Cc3ccccc3)NC(=O)OC3COC4OCCC34)cc21)CC(C)C (stereo not shown) [Compound 113]
IC50 [1]: 90 nM
IC50 [2]: 23 nM
IC50 [3]: 34 nM
Ki [4]: 2.9 nM
Ki (mutant HIV PR (Mutant 9)): 0.21 nM
IC50 (WT=HIVHXB2): 8 nM
Ki (wild type HIV PR): < 0.1 nM
Ki (mutant HIV PR (Mutant 8)): < 0.3 nM

CC(C)CN(CC(O)C(Cc1ccccc1)NC(=O)OC1COC2OCCC12)S(=O)(=O)c1ccc2c(c1)C(=CNCCCCc1ccccc1)C(=O)N2 (stereo not shown) [Compound 78, [1-Benzyl-2-hydroxy-3-(isobutyl-{2-oxo-3-[(4-phenyl-butylamino)-methylene]-2,3-dihydro-1H-indole-5-sulfonyl}-amino)-propyl]-carbamic acid hexahydro-furo[2,3-b]furan-3-yl ester]
IC50 [1]: 105 nM
IC50 [2]: 17 nM
IC50 [3]: 55 nM
Ki [4]: < 1 nM
Ki (mutant HIV PR (Mutant 9)): < 0.1 nM
IC50 (WT=HIVHXB2): 11 nM
Ki (wild type HIV PR): < 0.1 nM
Ki (mutant HIV PR (Mutant 8)): < 0.3 nM

CC(C)CN(C[C@@H](O)[C@H](Cc1ccccc1)NC(=O)O[C@H]1CO[C@H]2OCC[C@H]21)S(=O)(=O)c1ccc2c(c1)/C(=C/NCC(C)(C)C)C(=O)N2 [Compound 22, [1-Benzyl-3-({3-[(2,2-dimethyl-propylamino)-methylene]-2-oxo-2,3-dihydro-1H-indole-5-sulfonyl}-isobutyl-amino)-2-hydroxy-propyl]-carbamic acid hexahydro-furo[2,3b]furan-3-yl ester]
IC50 [1]: 27 nM
IC50 [2]: 9.5 nM
IC50 [3]: 13 nM
Ki [4]: < 1 nM
Ki (mutant HIV PR (Mutant 9)): 0.15 nM
IC50 (WT=HIVHXB2): 4.5 nM
Ki (wild type HIV PR): < 0.1 nM
Ki (mutant HIV PR (Mutant 8)): < 0.3 nM

C=CCN(C=C1C(=O)Nc2ccc(S(=O)(=O)N(CC(C)C)CC(O)C(Cc3ccccc3)NC(=O)OC3COC4OCCC34)cc21)C1CCCC1 (stereo not shown) [Compound 116]
IC50 [1]: 150 nM
IC50 [2]: 20 nM
IC50 [3]: 50 nM
Ki [4]: < 1 nM
Ki (mutant HIV PR (Mutant 9)): < 0.1 nM
IC50 (WT=HIVHXB2): 15 nM
Ki (wild type HIV PR): < 0.1 nM
Ki (mutant HIV PR (Mutant 8)): < 0.3 nM

CC(C)CN(CC(O)C(Cc1ccccc1)NC(=O)OC1COC2OCCC12)S(=O)(=O)c1ccc2c(c1)C(=CNCC1CCCCC1)C(=O)N2 (stereo not shown) [Compound 72, [1-Benzyl-3-({3-[(cyclohexylmethyl-amino)-methylene]-2-oxo-2,3-dihydro-1H-indole-5-sulfonyl}-isobutyl-amino)-2-hydroxy-propyl]-carbamic acid hexahydro-furo[2,3-b]furan-3-yl ester]
IC50 [1]: 40 nM
IC50 [2]: 9 nM
IC50 [3]: 27 nM
Ki [4]: < 1 nM
Ki (mutant HIV PR (Mutant 9)): < 0.1 nM
IC50 (WT=HIVHXB2): 9.7 nM
Ki (wild type HIV PR): < 0.1 nM
Ki (mutant HIV PR (Mutant 8)): < 0.3 nM

CNC(C)=C1C(=O)Nc2ccc(S(=O)(=O)N(CC(C)C)CC(O)C(Cc3ccccc3)NC(=O)OC3COC4OCCC34)cc21 (stereo not shown) [Compound 41, (1-Benzyl-2-hydroxy-3-{isobutyl-[3-(1-methylamino-ethylidene)-2-oxo-2,3-dihydro-1H-indole-5-sulfonyl]-amino}-propyl)-carbamic acid hexahydro-furo[2,3-b]furan-3-yl ester]
IC50 [1]: 56 nM
IC50 [2]: 17 nM
IC50 [3]: 29 nM
Ki [4]: < 1 nM
Ki (mutant HIV PR (Mutant 9)): < 0.1 nM
IC50 (WT=HIVHXB2): 10 nM
Ki (wild type HIV PR): < 0.1 nM
Ki (mutant HIV PR (Mutant 8)): < 0.3 nM

CCCN(C=C1C(=O)Nc2ccc(S(=O)(=O)N(CC(C)C)CC(O)C(Cc3ccccc3)NC(=O)OC3COC4OCCC34)cc21)CC (stereo not shown) [Compound 106]
IC50 [1]: 60 nM
IC50 [2]: 20 nM
IC50 [3]: 30 nM
Ki [4]: < 1 nM
Ki (mutant HIV PR (Mutant 9)): < 0.1 nM
IC50 (WT=HIVHXB2): 21 nM
Ki (wild type HIV PR): < 0.1 nM
Ki (mutant HIV PR (Mutant 8)): < 0.3 nM
